In ChEMBL document CHEMBL5634137, “2,4-Diacetylphloroglucinol (DAPG) derivatives rapidly eradicate methicillin-resistant staphylococcus aureus without resistance development by disrupting membrane” (Eur J Med Chem, 2023):
≈ marks a conversion by molar mass, not a printed value. Calls of active or inactive are those of the source. No cut-off for these calls is given here.

Assays:
Staphylococcus aureus [1] = experiment: Antibacterial activity against Methicillin-resistant Staphylococcus aureus USA300 assessed as inhibition of bacterial growth incubated for 24 hrs by broth dilution method; type: functional
Escherichia coli = experiment: Antibacterial activity against Escherichia coli ATCC 11775 assessed as inhibition of bacterial growth incubated for 24 hrs by broth dilution method; type: functional
Klebsiella pneumoniae = experiment: Antibacterial activity against Klebsiella pneumoniae […] assessed as inhibition of bacterial growth incubated for 24 hrs by broth dilution method; type: functional
Pseudomonas aeruginosa = experiment: Antibacterial activity against Pseudomonas aeruginosa […] assessed as inhibition of bacterial growth incubated for 24 hrs by broth dilution method; type: functional
Staphylococcus aureus [2] = experiment: Bactericidal against methicillin-resistant Staphylococcus aureus ATCC 4330 assessed as inhibition of bacterial growth incubated for 24 hrs by broth dilution method; type: functional
Staphylococcus aureus [3] = experiment: Bactericidal activity against methicillin-resistant Staphylococcus aureus ATCC 3392 assessed as inhibition of bacterial growth incubated for 24 hrs by broth dilution method; type: functional
Staphylococcus aureus [4] = experiment: Antibacterial activity against methicillin-resistant Staphylococcus aureus ATCC 4330 assessed as inhibition of bacterial growth incubated for 24 hrs by broth dilution method; type: functional
Staphylococcus aureus [5] = experiment: Antibacterial activity against methicillin-resistant Staphylococcus aureus ATCC 3392 assessed as inhibition of bacterial growth incubated for 24 hrs by broth dilution method; type: functional
Staphylococcus aureus [6] = experiment: Selectivity index, ratio of MBC for bactericidal against methicillin-resistant Staphylococcus aureus ATCC 4330 to MIC for antibacterial activity against methicillin-resistant Staphylococcus aureus ATCC 4330; type: functional
Staphylococcus aureus [7] = experiment: Selectivity index, ratio of MBC for bactericidal against methicillin-resistant Staphylococcus aureus ATCC 3392 to MIC for antibacterial activity against methicillin-resistant Staphylococcus aureus ATCC 3392; type: functional
[8] = Cytotoxicity against mouse RAW264.7 cells assessed as survival rate incubated for 24 hrs by MTT assay; type: toxicity, cell-based; design: concentration or dose not given beside the values; conditions: read-out: Survival
[9] = Cytotoxicity against human L02 cells assessed as survival rate incubated for 24 hrs by MTT assay; type: toxicity, cell-based; design: concentration or dose not given beside the values; conditions: read-out: Survival
Staphylococcus aureus [10] = experiment: Antibacterial activity against Methicillin-resistant Staphylococcus aureus USA300 infected in mouse skin infection model assessed as reduction in number of bacteria at 10 mg/kg, sc administered every 12 hrs for 3 days; type: functional; conditions: time 3.0 day

Structure (SMILES) | MIC (Staphylococcus aureus [1]) [µg/mL] | MIC (Escherichia coli) [µg/mL] | MIC (Klebsiella pneumoniae) [µg/mL] | MIC (Pseudomonas aeruginosa) [µg/mL] | MBC (Staphylococcus aureus [2]) [µg/mL] | MBC (Staphylococcus aureus [3]) [µg/mL] | MIC (Staphylococcus aureus [4]) [µg/mL] | MIC (Staphylococcus aureus [5]) [µg/mL] | Selectivity Index (Staphylococcus aureus [6]) | Selectivity Index (Staphylococcus aureus [7]) | viability at 24 h [8] [%] | viability at 24 h [9] [%] | Activity (Staphylococcus aureus [10])
CCCCC(=O)c1c(O)cc(O)c(C(=O)CCC(C)C)c1O | 0.5 (≈ 1.62 µM) | > 64 | > 64 | > 64 | 2 (≈ 6.49 µM) | 8 (≈ 25.9 µM) | 0.5 (≈ 1.62 µM) | 0.5 (≈ 1.62 µM) | 4 | 16 | 76 | 75 | –
O=C(c1c(O)cc(O)c(C(=O)C2CCCC2)c1O)C1CCCC1 | 0.5 (≈ 1.57 µM) | 64 (≈ 201 µM) | > 64 | > 64 | 4 (≈ 12.6 µM) | 4 (≈ 12.6 µM) | 1 (≈ 3.14 µM) | 1 (≈ 3.14 µM) | 4 | 4 | 76 | 75 | –
CCCCC(=O)c1c(O)cc(O)c(C(=O)C2CCCCC2)c1O | 0.5 (≈ 1.56 µM) | > 64 | > 64 | > 64 | 1 (≈ 3.12 µM) | 4 (≈ 12.5 µM) | 0.5 (≈ 1.56 µM) | 0.5 (≈ 1.56 µM) | 2 | 8 | 76 | 75 | –
Cc1onc(-c2ccccc2)c1C(=O)N[C@@H]1C(=O)N2[C@@H]1SC(C)(C)[C@@H]2C(=O)O [OXACILLIN] | 16 (≈ 39.9 µM) | – | – | – | – | – | – | – | – | – | – | – | inactive
